Results taken from patent publication US9957271B2, “Substituted bicyclic aza-heterocycles and analogues as sirtuin modulators” (GlaxoSmithKline, LLC, priority 2012, dated 2018).

Experiments:
SIRT1 [1] = biological target: T1, SIRT1 (Homo sapiens, UniProt Q96EB6); test: TAMRA based mass spectrometry assay of SIRT1 activity; type: biochemical; details: for Emax: read-out: TAMRA % Fold Act
T1 sequence (Q96EB6 1-747): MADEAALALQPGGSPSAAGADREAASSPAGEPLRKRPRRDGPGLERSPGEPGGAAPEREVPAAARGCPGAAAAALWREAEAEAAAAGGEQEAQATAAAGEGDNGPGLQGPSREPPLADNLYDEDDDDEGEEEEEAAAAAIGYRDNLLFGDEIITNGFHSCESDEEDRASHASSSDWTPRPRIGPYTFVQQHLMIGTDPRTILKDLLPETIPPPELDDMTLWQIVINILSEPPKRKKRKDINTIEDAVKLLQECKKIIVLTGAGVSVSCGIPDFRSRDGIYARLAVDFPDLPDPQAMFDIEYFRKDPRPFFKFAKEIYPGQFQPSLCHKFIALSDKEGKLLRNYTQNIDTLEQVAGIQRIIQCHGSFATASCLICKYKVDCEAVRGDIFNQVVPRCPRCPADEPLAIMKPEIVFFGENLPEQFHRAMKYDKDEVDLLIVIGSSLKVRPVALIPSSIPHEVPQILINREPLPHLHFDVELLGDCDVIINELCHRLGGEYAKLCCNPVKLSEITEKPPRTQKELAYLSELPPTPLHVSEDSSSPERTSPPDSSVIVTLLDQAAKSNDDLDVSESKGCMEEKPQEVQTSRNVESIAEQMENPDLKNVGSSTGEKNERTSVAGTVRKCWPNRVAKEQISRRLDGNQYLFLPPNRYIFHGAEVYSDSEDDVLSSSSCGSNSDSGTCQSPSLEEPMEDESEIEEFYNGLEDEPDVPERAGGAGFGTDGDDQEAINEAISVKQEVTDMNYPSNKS
How it was run: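 Deacetylation of a biotinylated, TAMRA-tagged p53-based peptide (0.5 μM) by 10 nM His-tagged SIRT1 with 120 μM βNAD+, 25 °C for 25 min, pH 8 Tris-acetate buffer, across a compound concentration range. Quenched by formic acid and read by mass spec as product peptide or OAADPR; activity relative to DMSO reactions, nicotinamide defining maximal inhibition.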

SIRT1 [2] = biological target: T1, SIRT1; test: Trp mass spectrometry assay of SIRT1 activity; type: biochemical; details: for Emax: read-out: Trp % Fold Act
How it was run: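 Activation readout: EC1.5 (concentration raising activity 50% over control) and percent maximum activation, from mass-spec quantitation of OAADPR or deacetylated Trp peptide. Reaction: 0.5 μM acetylated Trp peptide, 120 μM βNAD+, 10 nM bacterially expressed N-His SIRT1, pH 7.5 HEPES buffer with […], 25 min at 25° C.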

[3] = TAMRA assay, concentration giving 150% activation of SIRT1
[4] = TAMRA assay, percent maximum fold activation
[5] = Trp assay, concentration giving 150% activation of SIRT1
[6] = Trp assay, percent maximum fold activation
[7] = concentration of test compound giving 150% activation of SIRT1, TAMRA peptide substrate
[8] = percent maximum fold activation of SIRT1, TAMRA peptide substrate
[9] = concentration of test compound giving 150% activation of SIRT1, Trp peptide substrate
[10] = percent maximum fold activation of SIRT1, Trp peptide substrate
[11] = TAMRA peptide substrate, concentration giving 150% activation of SIRT1
[12] = TAMRA peptide substrate, percent maximum fold activation
[13] = Trp peptide substrate, concentration giving 150% activation of SIRT1
[14] = Trp peptide substrate, percent maximum fold activation

With O=C(Nc1ccnc(OCC(O)CO)c1)c1cnc2ccc(-c3ccccc3F)nn12 (centres unmarked) [Compound 284] the “TAMRA EC1.5 (μM)” value (SIRT1 [1]; [3]) was “C (EC1.5>25 μM)”, the Emax (SIRT1 [1]; [4]) was under 350% and the “Trp EC1.5 (μM)” value (SIRT1 [2]; [5]) was “C (EC1.5>25 μM)”. The Emax (SIRT1 [2]; [6]) was under 350%.
In the case of O=C(Nc1cccc(CN2CCOCC2)n1)c1cnc2ccc(-c3cccc(Cl)c3)nn12 [Compound 26], the “TAMRA EC1.5 (μM)” value (SIRT1 [1]; [7]) is reported as “A (EC1.5<1 μM)”, the Emax (SIRT1 [1]; [8]) is reported as at least 350% and the “Trp EC1.5 (μM)” value (SIRT1 [2]; [9]) is reported as “C (EC1.5>25 μM)”. It also gave an Emax (SIRT1 [2]; [10]) of under 350%.
Cc1cc(NC(=O)c2cnc3ccc(-c4ccccc4OC(F)(F)F)nn23)cc(C)n1 [Compound 419] was tested, and the “TAMRA EC1.5” value (SIRT1 [1]; [11]) was “A (EC1.5<1 μM)”, the Emax (SIRT1 [1]; [12]) was at least 350% and the “Trp EC1.5” value (SIRT1 [2]; [13]) was “A (EC1.5<1 μM)”. For the same molecule, the Emax (SIRT1 [2]; [14]) was at least 350%.
COc1cccc(NC(=O)c2cnc3ccc(-c4ccccc4Cl)nn23)n1 [Compound 261] was tested, and the “TAMRA EC1.5 (μM)” value (SIRT1 [1]; [3]) was “A (EC1.5<1 μM)”, the Emax (SIRT1 [1]; [4]) was under 350% and the “Trp EC1.5 (μM)” value (SIRT1 [2]; [5]) was “A (EC1.5<1 μM)”. For the same molecule, the Emax (SIRT1 [2]; [6]) was under 350%.
In the case of O=C(Nc1cnc2ccc(-c3ccccc3OC(F)(F)F)nn12)c1ncccn1 [Compound 315], the “TAMRA EC1.5 (μM)” value (SIRT1 [1]; [3]) is reported as “A (EC1.5<1 μM)”, the Emax (SIRT1 [1]; [4]) is reported as at least 350% and the “Trp EC1.5 (μM)” value (SIRT1 [2]; [5]) is reported as “B (EC1.5 1-25 μM)”. The Emax (SIRT1 [2]; [6]) was at least 350%.
In the case of Cc1cc(-c2ccccc2C(F)(F)F)nn2c(C(=O)Nc3ccnc(N4CCC4)c3)cnc12 [Compound 207], the “TAMRA EC1.5 (μM)” value (SIRT1 [1]; [3]) is reported as “A (EC1.5<1 μM)”, the Emax (SIRT1 [1]; [4]) is reported as at least 350% and the “Trp EC1.5 (μM)” value (SIRT1 [2]; [5]) is reported as “A (EC1.5<1 μM)”. The Emax (SIRT1 [2]; [6]) was at least 350%.
For Cc1cccc(NC(=O)c2c(C)nc3c(C)cc(-c4ccccc4OC(F)(F)F)nn23)n1 [Compound 480], the “TAMRA EC1.5” value (SIRT1 [1]; [11]) was “A (EC1.5<1 μM)”, the Emax (SIRT1 [1]; [12]) was at least 350% and the “Trp EC1.5” value (SIRT1 [2]; [13]) was “B (EC1.5 1-25 μM)”. For the same molecule, the Emax (SIRT1 [2]; [14]) was under 350%.
Cc1cnc(C(=O)Nc2cnn3ccc(-c4ccccc4C(F)(F)F)nc23)cn1 [Compound 800] was tested, and the “TAMRA EC1.5 (μM)” value (SIRT1 [1]; [3]) was “B (EC1.5 1-25 μM)”, the Emax (SIRT1 [1]; [4]) was at least 350% and the “Trp EC1.5 (μM)” value (SIRT1 [2]; [5]) was “C (EC1.5>25 μM)”. It also gave an Emax (SIRT1 [2]; [6]) of under 350%.
With O=C(Nc1ncc(CN2CCOCC2)s1)c1cnc2ccc(-c3ccccc3C(F)(F)F)nn12 [Compound 150] the “TAMRA EC1.5 (μM)” value (SIRT1 [1]; [7]) was “B (EC1.5 1-25 μM)”, the Emax (SIRT1 [1]; [8]) was under 350% and the “Trp EC1.5 (μM)” value (SIRT1 [2]; [9]) was “B (EC1.5 1-25 μM)”. It also gave an Emax (SIRT1 [2]; [10]) of under 350%.
For O=C(Nc1ccncc1)c1cnc2ccc(-c3ccc(F)c(F)c3F)nn12 [Compound 128], the “TAMRA EC1.5 (μM)” value (SIRT1 [1]; [7]) was “C (EC1.5>25 μM)”, the Emax (SIRT1 [1]; [8]) was under 350% and the “Trp EC1.5 (μM)” value (SIRT1 [2]; [9]) was “C (EC1.5>25 μM)”. The Emax (SIRT1 [2]; [10]) was under 350%.
Cc1nn2ccc(-c3ccccc3C(F)(F)F)nc2c1C(=O)Nc1cccnc1 [Compound 549] was tested, and the “TAMRA EC1.5” value (SIRT1 [1]; [11]) was “A (EC1.5<1 μM)”, the Emax (SIRT1 [1]; [12]) was at least 350% and the “Trp EC1.5” value (SIRT1 [2]; [13]) was “B (EC1.5 1-25 μM)”. The Emax (SIRT1 [2]; [14]) was at least 350%.
In the case of Cc1nc2ccc(-c3ccccc3Cl)nn2c1NC(=O)c1cccc(OCC(O)CO)n1 (centres unmarked) [Compound 357], the “TAMRA EC1.5 (μM)” value (SIRT1 [1]; [3]) is reported as “C (EC1.5>25 μM)”, the Emax (SIRT1 [1]; [4]) is reported as under 350% and the “Trp EC1.5 (μM)” value (SIRT1 [2]; [5]) is reported as “C (EC1.5>25 μM)”. For the same molecule, the Emax (SIRT1 [2]; [6]) was under 350%.
With O=C(Nc1cncc(F)c1)c1cnc2ccc(-c3ccccc3C(F)(F)F)nn12 [Compound 107] the “TAMRA EC1.5 (μM)” value (SIRT1 [1]; [7]) was “B (EC1.5 1-25 μM)”, the Emax (SIRT1 [1]; [8]) was at least 350% and the “Trp EC1.5 (μM)” value (SIRT1 [2]; [9]) was “B (EC1.5 1-25 μM)”. It also gave an Emax (SIRT1 [2]; [10]) of under 350%.
With Cc1nc2c(C)cc(-c3ccccc3C(F)(F)F)nn2c1NC(=O)c1cccc(O)n1 [Compound 590] the “TAMRA EC1.5” value (SIRT1 [1]; [11]) was “B (EC1.5 1-25 μM)”, the Emax (SIRT1 [1]; [12]) was under 350% and the “Trp EC1.5” value (SIRT1 [2]; [13]) was “C (EC1.5>25 μM)”. The Emax (SIRT1 [2]; [14]) was under 350%.
With O=C(Nc1cccc(CN2CCOCC2)n1)c1cnc2ccc(-c3cccc(Cl)c3F)nn12 [Compound 140] the “TAMRA EC1.5 (μM)” value (SIRT1 [1]; [7]) was “A (EC1.5<1 μM)”, the Emax (SIRT1 [1]; [8]) was at least 350% and the “Trp EC1.5 (μM)” value (SIRT1 [2]; [9]) was “B (EC1.5 1-25 μM)”. The Emax (SIRT1 [2]; [10]) was under 350%.
With Cc1cc(-c2ccccc2C(F)(F)F)nn2c(C(=O)Nc3cccnc3)cnc12 [Compound 206] the “TAMRA EC1.5 (μM)” value (SIRT1 [1]; [3]) was “B (EC1.5 1-25 μM)”, the Emax (SIRT1 [1]; [4]) was at least 350% and the “Trp EC1.5 (μM)” value (SIRT1 [2]; [5]) was “B (EC1.5 1-25 μM)”. It also gave an Emax (SIRT1 [2]; [6]) of at least 350%.
In the case of Cc1nn2ccc(-c3ccccc3C(F)(F)F)nc2c1NC(=O)c1cnccn1 [Compound 571], the “TAMRA EC1.5” value (SIRT1 [1]; [11]) is reported as “C (EC1.5>25 μM)”, the Emax (SIRT1 [1]; [12]) is reported as under 350% and the “Trp EC1.5” value (SIRT1 [2]; [13]) is reported as “B (EC1.5 1-25 μM)”. It also gave an Emax (SIRT1 [2]; [14]) of under 350%.
